Entries after “also recorded” stand apart in the source; their conditions may differ.
How the values were obtained:
[1] = tested on: isolated rat liver mitochondria; assay: FACS analysis of ΔΨm and ROS in isolated mitochondria
Description: Measurement of ΔΨm and ROS Production by FACS Analysis. ΔΨm and ROS production were measured by FACScan (Becton Dickinson, San Jose, Calif.) analysis. Freshly isolated rat mitochondria were resuspended in respiration buffer (50-100 μg/ml) and then incubated for 15 min at 37° C. with 50 nM 3,3′-dihexyloxacarbocyanine iodide [DiOC6(3)],2 μM dihydroethidium (HE), or 5 μM 2′,7′-dichlorofluorescin diacetate (H2DCFDA; Molecular Probes Inc.) (Cathcart et al., Anal. Biochem., 134, 111-116 (1983); Carter et al., J. Leukoycte Biol, 55, 253-258 (1994); Zamzami et al., J. Exp. Med., 181 1661-1672 (1995)). Mitochondria were then treated with DCA (100 μM) or PhAsO (80 μM) for 5 min and analyzed by cytofluorometry. For the coincubation studies, mitochondria were preincubated with UDCA (500 μM) or HDCA (500 μM) prior to the addition of either DCA or PhAsO.

[2] = tested on: rat primary hepatocytes; assay: Apoptosis in isolated rat hepatocytes with DCA, TGF-β1 or okadaic acid ± UDCA (Example III); type: cell-based; conditions: for percentage of apoptotic cells: 50 μM deoxycholic acid 4 hours, 1 nM TGF-β1 24 hours, 25 nM okadaic acid 16 hours
Description: Cell culture and preparation of rat primary hepatocytes. Rat primary hepatocytes were isolated from male Sprague-Dawley rats (200-250 g) by collagenase perfusion as described by Mariasb, et al., J. Biol. Chem. 261, 9583-9586 (1986). Briefly, rats were anesthesized with phenobarbitol and the livers were perfused with 0.05% collagenase. Hepatocyte suspensions were obtained by passing digested livers through 0.125 mm gauze and washing cells in modified Eagle's medium (MEM) (Life Technologies, Inc., Grand Island, N.Y.). Cell viability was determined by trypan blue exclusion and was typically 85 to 90%. After isolation, hepatocytes were resuspended in William's E medium (Life Technologies, Inc.) supplemented with 26 mM sodium bicarbonate, 23 mM HEPES, 0.01 U/mL insulin, 2 mM L-glutamine, 10 nM dexamethasone, 5.5 mM glucose, 100 U/ml penicillin and 100 U/ml streptomycin and then plated on 35×10 mm […] tissue culture dishes (Becton Dickinson Labware, Lincoln Park, N.J.) at 1.0×10^6 cells/ml. The cells were maintained at 37° C. in a humidified atmosphere of 5% CO2 for 3 h. Plates were then washed with medium to remove dead cells, and medium containing 10% heat-inactivated FBS (55° C. for 30 min) was added (Atlanta Biologicals, Inc., Norcross, Ga.).
Incubation of cells with inducers of apoptosis. Freshly isolated rat hepatocytes were cultured for 3 h as described above and then incubated with William's E medium supplemented with either 50 μM DCA for 4 h, 1 nM TGF-β1 for 24 h, or 25 nM okadaic acid for 16 h, in the presence or absence of 100 μM UDCA, or no addition (control). The medium was gently removed at the indicated time points and scored for nonviable cells by trypan blue dye exclusion. The attached cells were fixed for morphologic assessment of apoptotic changes. Morphological evaluation of apoptosis. The medium was gently removed at the indicated time points to prevent detachment of cells. Cells were fixed with 4% formaldehyde in PBS, pH 7.4, for 10 min at room temperature, incubated with Hoechst dye 33258 (Sigma Chemical Co., St. Louis, Mo.) at […] in PBS for 5 min, washed with PBS and mounted with PBS:glycerol (3:1, v/v). Fluorescence was visualized with a Zeiss standard fluorescence microscope (Carl Zeiss, Inc., Thornwood, N.Y.). Photographs were taken with Kodak Ektar-1000 film (Eastman Kodak Co.). Stained nuclei were scored by blind analysis and categorized according to the condensation and staining characteristics of chromatin. Normal nuclei were identified as noncondensed chromatin dispersed over the entire nucleus. […] Three fields per dish of approximately 500 nuclei were counted; mean values are expressed as the percent of apoptotic nuclei.

[3] = tested on: HuH-7 cells; assay: TGF-β1-induced apoptosis, Hoechst staining, HuH-7 cells; type: cell-based, human
Description: Incubation of cells with ethanol, TGF-β1, anti-Fas antibody or okadaic acid. Freshly isolated rat hepatocytes were cultured for 3 h as described above and then incubated with William's E medium supplemented with either 0.5% ethanol, 50 μM UDCA, ethanol plus UDCA, or no addition (control) for 2 h and 4 h. HuH-7 cells were incubated with Dulbecco's medium supplemented with either 1 nM TGF-β1 (R & D Systems, Minneapolis, Minn.), 100 μM UDCA, TGF-β1+UDCA, or no addition (control) for 24 h, 48 h, and 72 h. Hep G2 cells were incubated with Dulbecco's medium supplemented with either 0.5 μg/ml of anti-Fas antibody CH-11 (Upstate Biotechnology, Inc., Lake Placid, N.Y.), 100 μM UDCA, CH-11+UDCA, or no addition for 48 h. Both HuH-7 cells and human osteogenic sarcoma Saos-2 cells were cultured in Dulbecco's medium supplemented with either 50 nM okadaic acid (Boehringer Mannheim Biochemicals, Inc, Indianapolis, Ind.), 100 μM UDCA, okadaic acid+UDCA, or no addition for 48 h. In all the combination groups, cells were pretreated with UDCA alone for 60 min prior to addition of ethanol, TGF-β1, anti-Fas antibody or okadaic acid.
HuH-7 cells were treated with 1 nM TGF-β1, 100 μM of either hyodeoxycholic acid, taurocholic acid, tauroursodeoxycholic acid (Sigma Chemical Co.) or glycoursodeoxycholic acid (Steraloids Inc., Wilton, N.H.), or a combination of TGF-β1 plus the individual bile acids for 72 h. HeLa and Cos-7 cells were incubated with 50 nM okadaic acid, 100 μM of either tauroursodeoxycholic acid or glycoursodeoxycholic acid, or a combination of okadaic acid plus the individual bile acids for 24 h. In the combination groups, cells were pretreated with the bile acid alone for 60 min prior to incuation with TGF-β1 or okadaic acid. In all studies, the medium was gently removed at the indicated times and scored for nonviable cells. The attached cells were fixed for morphologic evaluation of apoptosis.
Morphological evaluation of apoptosis. […] Fluorescence was visualized with a Zeiss standard fluorescence microscope (Carl Zeiss, Inc., Thornwood, N.Y.). Photographs were taken with Kodak Ektar-1000 film (Eastman Kodak Co.). Stained nuclei were scored by blind analysis and categorized according to the condensation and staining characteristics of chromatin. Normal nuclei were identified as noncondensed chromatin dispersed over the entire nucleus. Apoptotic nuclei were identified by condensed chromatin, contiguous to the nuclear membrane, as well as nuclear fragmentation of condensed chromatin. Three fields per dish of approximately 500 nuclei were counted; mean values are expressed as the percent of apoptotic nuclei.

[4] = 100 μM DCA alone or 500 μM UDCA alone
[5] = 1 nM TGF-β1, 100 μM bile acid, 72 h

## C[C@H](CCC(=O)O)[C@H]1CC[C@H]2[C@@H]3CC[C@@H]4C[C@H](O)CC[C@]4(C)[C@H]3C[C@H](O)[C@]12C [DCA, deoxycholic acid]
[1]; 100 μM DCA alone
  other ROS (peroxides, H2DCFDA): 21.7±3.5%
[1]; [4]
  superoxide anion production: 20.7±2.4%
[1]; 100 μM DCA alone, 5 min
  percentage of low ΔΨm: 16.0±1.8%
[2]
  percentage of apoptotic cells: 7%

## C[C@H](CCC(=O)O)[C@H]1CC[C@H]2[C@@H]3[C@@H](O)C[C@@H]4C[C@H](O)CC[C@]4(C)[C@H]3CC[C@]12C [UDCA, ursodeoxycholic acid]
[3]; 1 nM TGF-β1, 100 μM bile acid, 24 h
  decrease of TGF-β1 apoptosis: approximately 49%
[3]; 1 nM TGF-β1, 100 μM bile acid, 48 h
  decrease of TGF-β1 apoptosis: ~44%
[3]; [5]
  decrease of TGF-β1 apoptosis: ~45%
[3]; inducer TGF-β1, HuH-7, inhibition by UDCA
  Inhibition % Apoptosis: 44.2 ± 11.2%
[1]; 80 μM PhAsO + 500 μM UDCA
  reduction of ROS production of peroxides: 55%
  reduction of ROS production of superoxide anions: 100%
[1]; 80 μM PhAsO + 500 μM UDCA versus PhAsO alone
  reduction of ΔΨm disruption: approximately 65%
[1]; 100 μM DCA + 500 μM UDCA
  other ROS (peroxides, H2DCFDA): 14.7±1.4%
  percentage of low ΔΨm: 10.3±0.7%
  superoxide anion production: 15.9±1.5%
[1]; [4]
  superoxide anion production: 11.8±2.8%
[2]; Rattus norvegicus, Hepatocyte, 100 μM UDCA with each of the apoptosis-inducing agents
  inhibition at 100 µM: > 80%

## C[C@H](CCC(=O)O)[C@H]1CC[C@H]2[C@@H]3C[C@H](O)[C@@H]4C[C@H](O)CC[C@]4(C)[C@H]3CC[C@]12C [hyodeoxycholic acid]
[3]; [5]
  inhibition of TGF-β1-induced apoptosis: did not; also recorded: neither hyodeoxycholic acid nor taurocholic acid showed inhibition
[1]; 100 μM DCA, 500 μM bile acid pretreatment, listed as HDCA
  effect on DCA-mediated changes in ΔΨm and ROS production: did not prevent DCA-mediated changes; also recorded: does not significantly inhibit
[1]; 500 μM HDCA alone
  ΔΨm and ROS with HDCA alone: no changes were observed

## C=C1[C@@H](O)[C@@H]2O[C@]3(CC[C@H](/C=C/[C@@H](C)[C@@H]4CC(C)=C[C@@]5(O[C@H](C[C@@](C)(O)C(=O)O)CC[C@H]5O)O4)O3)CC[C@H]2O[C@@H]1[C@@H](O)C[C@H](C)[C@H]1O[C@@]2(CCCCO2)CC[C@H]1C [okadaic acid]
[2]
  percentage of apoptotic cells: 75%

## TGF-β1: transforming growth factor β1, nonmembrane damaging inducer of apoptosis
[3]; 1 nM TGF-β1
  induction of apoptosis: significant apoptosis
[2]
  percentage of apoptotic cells: 30%

— patent publication US20030044413A1, “Methods of limiting apoptosis of cells” (Regents of the University of Minnesota, priority 1998, published 2003)
